From PubChem BioAssay AID248 (DTP/NCI, 2004)
Toxic doses and inconclusive results are not listed. Cut-off read from the data, not from the text of the source: active = T/C of 150% or more; inactive = T/C below 125%.

Test system: L1210 leukemia ip in BDF1 mice, survival T/C
Assay: NCI In Vivo Anticancer Drug Screen. Data for tumor model L1210 Leukemia (intraperitoneal) in B6D2F1 (BDF1) mice
Details: endpoint: mean survival time, higher = longer survival
Procedure, shortened: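 Tumor was transplanted into mice, which were then dosed with test compound or vehicle alone. Survival was recorded for each group, and the treated figure was expressed relative to the control figure.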

[1] = dose: 100.0 mg/kg/injection, schedule: Q01DX009 (ip), vehicle: Klucel (hydroxypropylcellulose) (HPC)
[2] = dose: 100.0 mg/kg/injection, schedule: Q04DX003 (ip), vehicle: Klucel (hydroxypropylcellulose) (HPC)
[3] = dose: 200.0 mg/kg/injection, schedule: Q01DX009 (ip), vehicle: Klucel (hydroxypropylcellulose) (HPC)
[4] = dose: 200.0 mg/kg/injection, schedule: Q04DX003 (ip), vehicle: Klucel (hydroxypropylcellulose) (HPC)
[5] = dose: 400.0 mg/kg/injection, schedule: Q01DX009 (ip), vehicle: Klucel (hydroxypropylcellulose) (HPC)
[6] = dose: 400.0 mg/kg/injection, schedule: Q04DX003 (ip), vehicle: Klucel (hydroxypropylcellulose) (HPC)
[7] = dose: 100.0 mg/kg/injection, schedule: Q01DX001 (ip), vehicle: carboxymethylcellulose (CMC)
[8] = dose: 200.0 mg/kg/injection, schedule: Q01DX001 (ip), vehicle: carboxymethylcellulose (CMC)
[9] = dose: 400.0 mg/kg/injection, schedule: Q01DX001 (ip), vehicle: carboxymethylcellulose (CMC)
[10] = dose: 100.0 mg/kg/injection, schedule: Q01DX009 (ip), vehicle: acetone
[11] = dose: 200.0 mg/kg/injection, schedule: Q01DX009 (ip), vehicle: acetone
[12] = dose: 100.0 mg/kg/injection, schedule: Q01DX001 (ip), vehicle: saline
[13] = dose: 200.0 mg/kg/injection, schedule: Q01DX001 (ip), vehicle: saline
[14] = dose: 400.0 mg/kg/injection, schedule: Q01DX001 (ip), vehicle: saline

Measured: T/C

CC(C)(C)c1ccc(OC(=O)NCCCCCCNC(=O)Oc2ccc(C(C)(C)C)cc2)cc1
inactive: dose: 100.0 mg/kg/injection, schedule: Q01DX009 (ip), vehicle: other 96 % of control | dose: 200.0 mg/kg/injection, schedule: Q01DX009 (ip), vehicle: other 91 % of control | dose: 400.0 mg/kg/injection, schedule: Q01DX009 (ip), vehicle: other 87 % of control

CCCCCCCCCCCCCCCCNCCCN
inactive: dose: 100.0 mg/kg/injection, schedule: Q04DX003 (ip), vehicle: saline with Tween-80 98 % of control | dose: 200.0 mg/kg/injection, schedule: Q04DX003 (ip), vehicle: saline with Tween-80 96 % of control

CC(=O)c1ccc(F)c(C)c1
inactive: dose: 100.0 mg/kg/injection, schedule: Q04DX003 (ip), vehicle: saline sonified 93 % of control | dose: 200.0 mg/kg/injection, schedule: Q04DX003 (ip), vehicle: saline sonified 97 % of control | dose: 400.0 mg/kg/injection, schedule: Q04DX003 (ip), vehicle: saline sonified 93 % of control

O=C(/C=C/C(=O)Oc1ccccc1)Oc1ccccc1
inactive: [1] 88 % of control | [2] 107 % of control | [3] 91 % of control | [4] 107 % of control | [5] 98 % of control | [6] 98 % of control

O=C1CCCCC1Nc1ccc(Cl)cc1 (stereo unspecified)
inactive: [7] 100 % of control | [8] 95 % of control | [9] 95 % of control

C[n+]1cccc(C(=O)O)c1
inactive: dose: 50.0 mg/kg/injection, schedule: Q01DX001 (ip), vehicle: carboxymethylcellulose (CMC) 95 % of control | [7] 95 % of control | [8] 98 % of control

O=C(Nc1cc(C(F)(F)F)ccc1Cl)n1cccc1
inactive: [1] 113 % of control | [3] 113 % of control | [5] 106 % of control

Clc1cc(CBr)c(Cl)c(Cl)c1CBr
inactive: dose: 6.25 mg/kg/injection, schedule: Q01DX009 (ip), vehicle: saline sonified 94 % of control | dose: 6.25 mg/kg/injection, schedule: Q04DX003 (ip), vehicle: Klucel (hydroxypropylcellulose) (HPC) 97 % of control | dose: 12.5 mg/kg/injection, schedule: Q01DX009 (ip), vehicle: saline sonified 94 % of control | dose: 12.5 mg/kg/injection, schedule: Q04DX003 (ip), vehicle: Klucel (hydroxypropylcellulose) (HPC) 91 % of control | dose: 25.0 mg/kg/injection, schedule: Q01DX009 (ip), vehicle: saline sonified 91 % of control | dose: 25.0 mg/kg/injection, schedule: Q04DX003 (ip), vehicle: Klucel (hydroxypropylcellulose) (HPC) 98 % of control

Cc1cc(O)ccc1C1=NCC(C)S1 (stereo unspecified)
inactive: dose: 100.0 mg/kg/injection, schedule: Q01DX005 (ip), vehicle: Klucel (hydroxypropylcellulose) (HPC) 87 % of control | [1] 98 % of control | dose: 100.0 mg/kg/injection, schedule: Q04DX002 (ip), vehicle: Klucel (hydroxypropylcellulose) (HPC) 100 % of control | dose: 200.0 mg/kg/injection, schedule: Q01DX005 (ip), vehicle: Klucel (hydroxypropylcellulose) (HPC) 101 % of control | [3] 109 % of control | dose: 200.0 mg/kg/injection, schedule: Q04DX002 (ip), vehicle: Klucel (hydroxypropylcellulose) (HPC) 100 % of control | dose: 400.0 mg/kg/injection, schedule: Q01DX005 (ip), vehicle: Klucel (hydroxypropylcellulose) (HPC) 90 % of control | [5] 95 % of control | dose: 400.0 mg/kg/injection, schedule: Q04DX002 (ip), vehicle: Klucel (hydroxypropylcellulose) (HPC) 107 % of control

OCC(O)COc1ccnc2ccccc12 (stereo unspecified)
inactive: [10] 105 % of control | [11] 97 % of control | dose: 400.0 mg/kg/injection, schedule: Q01DX009 (ip), vehicle: acetone 97 % of control

CCCCCCCCCCCCC1C2CCCCC2C2CCCCC12 (stereo unspecified)
inactive: [12] 92 % of control | [13] 92 % of control | [14] 92 % of control

O=c1ccc2cccc(O)c2[nH]1
inactive: [12] 97 % of control | [13] 94 % of control | [14] 100 % of control

COc1ccc([N+](=O)[O-])cc1N
inactive: [2] 101 % of control | [4] 104 % of control | [6] 90 % of control

CC(C)=CBr
inactive: dose: 50.0 mg/kg/injection, schedule: Q01DX009 (ip), vehicle: acetone 96 % of control | [10] 89 % of control | [11] 103 % of control

Nc1nc2nc(N=Nc3ccc(C(=O)O)cc3)[nH]c2c(=O)[nH]1
inactive: [2] 96 % of control | [4] 91 % of control | [6] 99 % of control

O=C(NCCCNC(=O)Nc1cccc(C2=NCCCN2)c1)Nc1cccc(C2=NCCCN2)c1
inactive: dose: 0.5 mg/kg/injection, schedule: Q01DX Z (ip), vehicle: carboxymethylcellulose (CMC) 104 % of control | dose: 1.0 mg/kg/injection, schedule: Q01DX Z (ip), vehicle: carboxymethylcellulose (CMC) 106 % of control | dose: 2.0 mg/kg/injection, schedule: Q01DX Z (ip), vehicle: carboxymethylcellulose (CMC) 96 % of control

CC1=C(N2CCCC2)CCCC1=O
inactive: dose: 100.0 mg/kg/injection, schedule: Q04DX002 (ip), vehicle: saline 112 % of control | dose: 200.0 mg/kg/injection, schedule: Q04DX002 (ip), vehicle: saline 107 % of control

COc1ccc(-c2ccc([N+](=O)[O-])cc2[N+](=O)[O-])cc1
inactive: [7] 105 % of control | [8] 110 % of control | [9] 105 % of control

COc1cc(C(=O)O)c(Br)c(OC)c1OC
inactive: dose: 100.0 mg/kg/injection, schedule: Q01DX001 (ip), vehicle: saline with Tween-80 103 % of control | dose: 200.0 mg/kg/injection, schedule: Q01DX001 (ip), vehicle: saline with Tween-80 101 % of control | dose: 400.0 mg/kg/injection, schedule: Q01DX001 (ip), vehicle: saline with Tween-80 114 % of control

CC(=O)CC(=O)Nc1ccc2ccccc2c1
inactive: [1] 98 % of control | [2] 92 % of control | [4] 97 % of control | [6] 92 % of control
